Measured values reported in ChEMBL document CHEMBL2424566, “Preparation of betulinic acid derivatives by chemical and biotransformation methods and determination of cytotoxicity against selected cancer cell lines” (Eur J Med Chem, 2013).
Calls of active or inactive are those of the source. No cut-off for these calls is given here.

Key:
A549 [1] = experiment: Cytotoxicity against human A549 cells assessed as cell viability after 96 hrs by SRB assay; type: functional, cell-based; settings: A549, 96 h
MCF7 [2] = experiment: Cytotoxicity against human MCF7 cells assessed as cell viability after 96 hrs by SRB assay; type: functional, cell-based; settings: MCF7, 96 h
[3] = Cytotoxicity against human 518A2 cells assessed as cell viability after 96 hrs by SRB assay; type: functional, cell-based; settings: 518A2, 96 h
8505C = experiment: Cytotoxicity against human 8505C cells assessed as cell viability after 96 hrs by SRB assay; type: functional, cell-based
A2780 [4] = experiment: Cytotoxicity against human A2780 cells assessed as cell viability after 96 hrs by SRB assay; type: functional, cell-based; settings: A2780, 96 h
A549 [5] = experiment: Induction of apoptosis in human A549 cells assessed as early apoptosis and secondary necrosis at IC80 after 48 hrs by annexin V-FITC staining-based flow cytometric analysis relative to control; type: functional
A549 [6] = experiment: Induction of apoptosis in human A549 cells assessed as early apoptosis and secondary necrosis at IC80 after 24 hrs by annexin V-FITC staining-based flow cytometric analysis relative to control; type: functional
A549 [7] = experiment: Induction of apoptosis in human A549 cells assessed as apoptotic bodies at IC80 after 24 hrs by acridine orange/ethidium bromide staining-based fluorescence microscopic analysis; type: functional, cell-based
A549 [8] = experiment: Induction of apoptosis in human A549 cells assessed as membrane blebbing at IC80 after 24 hrs by acridine orange/ethidium bromide staining-based fluorescence microscopic analysis; type: functional, cell-based
A549 [9] = experiment: Induction of apoptosis in human A549 cells assessed as DNA fragmentation at IC80 after 24 hrs by acridine orange/ethidium bromide staining-based fluorescence microscopic analysis; type: functional, cell-based
A549 [10] = experiment: Induction of apoptosis in human A549 cells assessed as chromatin condensation at IC80 after 24 hrs by acridine orange/ethidium bromide staining-based fluorescence microscopic analysis; type: functional, cell-based
A549 [11] = experiment: Cell cycle arrest in human A549 cells assessed as accumulation at G2/M phase at IC80 by propidium iodide staining-based flow cytometric analysis; type: functional; settings: TDE = time-dependent effect
A549 [12] = experiment: Cell cycle arrest in human A549 cells assessed as accumulation at S phase at IC80 by propidium iodide staining-based flow cytometric analysis; type: functional; settings: TDE = time-dependent effect
A549 [13] = experiment: Cell cycle arrest in human A549 cells assessed as accumulation at G0/G1 phase at IC80 by propidium iodide staining-based flow cytometric analysis; type: functional; settings: TDE = time-dependent effect
A549 [14] = experiment: Cell cycle arrest in human A549 cells assessed as accumulation at subG1 phase at IC80 by propidium iodide staining-based flow cytometric analysis; type: functional; settings: TDE = time-dependent effect
A549 [15] = experiment: Cell cycle arrest in human A549 cells assessed as accumulation at G2/M phase at IC80 after 48 hrs by propidium iodide staining-based flow cytometric analysis (26 +/- 1.1%); type: functional
A549 [16] = experiment: Cell cycle arrest in human A549 cells assessed as accumulation at S phase at IC80 after 48 hrs by propidium iodide staining-based flow cytometric analysis (19.1 +/- 1.05%); type: functional
A549 [17] = experiment: Cell cycle arrest in human A549 cells assessed as accumulation at G0/G1 phase at IC80 after 48 hrs by propidium iodide staining-based flow cytometric analysis (48.5 +/- 1.82%); type: functional
A549 [18] = experiment: Cell cycle arrest in human A549 cells assessed as accumulation at subG1 phase at IC80 after 48 hrs by propidium iodide staining-based flow cytometric analysis (3.23 +/- 0.25%); type: functional
A549 [19] = experiment: Cell cycle arrest in human A549 cells assessed as accumulation at G2/M phase at IC80 after 24 hrs by propidium iodide staining-based flow cytometric analysis (24.9 +/- 1.46%); type: functional
A549 [20] = experiment: Cell cycle arrest in human A549 cells assessed as accumulation at S phase at IC80 after 24 hrs by propidium iodide staining-based flow cytometric analysis (20.2 +/- 0.81%); type: functional
A549 [21] = experiment: Cell cycle arrest in human A549 cells assessed as accumulation at G0/G1 phase at IC80 after 24 hrs by propidium iodide staining-based flow cytometric analysis (49.5 +/- 2.51%); type: functional
A549 [22] = experiment: Cell cycle arrest in human A549 cells assessed as accumulation at subG1 phase at IC80 after 24 hrs by propidium iodide staining-based flow cytometric analysis (2.73 +/- 0.49%); type: functional
[23] = Cytotoxicity against human CCD-18Co cells assessed as cell viability after 96 hrs by SRB assay; type: cell-based
MCF7 [24] = experiment: Selectivity index, ratio of IC50 for human CCD-18Co cells to IC50 for human MCF7 cells; type: functional
[25] = Selectivity index, ratio of IC50 for human CCD-18Co cells to IC50 for human 518A2 cells; type: functional
A2780 [26] = experiment: Selectivity index, ratio of IC50 for human CCD-18Co cells to IC50 for human A2780 cells; type: functional

Structure (SMILES)	IC50 (A549 [1]) [µM]	IC50 (MCF7 [2]) [µM]	IC50 [3] [µM]	IC50 (8505C) [µM]	IC50 (A2780 [4]) [µM]	also measured
C/C(=N\Nc1ccc([N+](=O)[O-])cc1[N+](=O)[O-])[C@@H]1CC[C@]2(C(=O)O)CC[C@]3(C)[C@H](CC[C@@H]4[C@@]5(C)CC/C(=N\Nc6ccc([N+](=O)[O-])cc6[N+](=O)[O-])C(C)(C)[C@@H]5CC[C@]43C)[C@@H]12	> 100	60.2	> 100	> 100	53.8	–
C=C(C)[C@@H]1CC[C@]2(C(=O)O)CC[C@]3(C)[C@H](CC[C@@H]4[C@@]5(C)CC[C@H](O)C(C)(C)[C@@H]5CC[C@]43C)[C@@H]12 [BETULINIC ACID]	13.3	14	14.8	12.6	8.75	Activity (A549 [5]): >50%; Activity (A549 [6]): 32%; Activity (A549 [7]): Active; Activity (A549 [8]): Active; Activity (A549 [9]): Active; Activity (A549 [10]): Active; Activity (A549 [11]): tde; Activity (A549 [12]): tde; Activity (A549 [13]): tde; Activity (A549 [14]): tde; Activity (A549 [15]): 0.17%; Activity (A549 [16]): 0.33%; Activity (A549 [17]): 0.96%; Activity (A549 [18]): 98.5%; Activity (A549 [19]): 20.1%; Activity (A549 [20]): 20.1%; Activity (A549 [21]): 36.7%; Activity (A549 [22]): 18.8%; IC50 [23]: 43.6 µM
C=C(C)[C@@H]1CC[C@]2(C(=O)OC)CC[C@]3(C)[C@H](CC[C@@H]4[C@@]5(C)CC/C(=N\Nc6ccc([N+](=O)[O-])cc6[N+](=O)[O-])C(C)(C)[C@@H]5CC[C@]43C)[C@@H]12	> 100	> 100	> 100	> 100	> 100	–
C[C@H](C=O)[C@@H]1CC[C@]2(C(=O)O)CC[C@]3(C)[C@H](CC[C@@H]4[C@@]5(C)CC/C(=N\Nc6ccc([N+](=O)[O-])cc6[N+](=O)[O-])C(C)(C)[C@@H]5CC[C@]43C)[C@@H]12	2	2.41	1.76	2.17	1.81	–
C=C(C)[C@@H]1CC[C@]2(C(=O)OC)CC[C@]3(C)[C@H](CC[C@@H]4[C@@]5(C)CCC(=O)C(C)(C)[C@@H]5CC[C@]43C)[C@@H]12 [METHYL BETULONATE]	> 100	98.1	68	> 100	36.2	–
C=C(C)[C@@H]1CC[C@]2(C(=O)O)CC[C@]3(C)[C@H](CC[C@@H]4[C@@]5(C)CCC(=O)C(C)(C)[C@@H]5CC[C@]43C)[C@@H]12 [BETUNOLIC ACID]	10.4	–	12.9	14	5.97	–
CC(=O)[C@@H]1CC[C@]2(C(=O)O)CC[C@]3(C)[C@H](CC[C@@H]4[C@@]5(C)CC/C(=N\Nc6ccc([N+](=O)[O-])cc6[N+](=O)[O-])C(C)(C)[C@@H]5CC[C@]43C)[C@@H]12	12.1	7.52	14.6	16.9	9.1	Activity (A549 [7]): Active; Activity (A549 [8]): Active; Activity (A549 [9]): Active; Activity (A549 [10]): Active; IC50 [23]: 43.5 µM
C/C(=N/O)[C@@H]1CC[C@]2(C(=O)O)CC[C@]3(C)[C@H](CC[C@@H]4[C@@]5(C)CC[C@H](O)C(C)(C)[C@@H]5CC[C@]43C)[C@@H]12	53.7	52.2	63.2	55.9	54.4	–
C=C(C)[C@@H]1CC[C@]2(C(=O)O)CC[C@]3(C)[C@H](CC[C@@H]4[C@@]5(C)CC/C(=N\Nc6ccc([N+](=O)[O-])cc6[N+](=O)[O-])C(C)(C)[C@@H]5CC[C@]43C)[C@@H]12	21.4	8.17	13.5	25.9	6.22	Activity (A549 [7]): Active; Activity (A549 [8]): Active; Activity (A549 [9]): Active; Activity (A549 [10]): Active; Ratio IC50 (MCF7 [24]): 1; Ratio IC50 [25]: 1; Ratio IC50 (A2780 [26]): 1; IC50 [23]: 18.1 µM
C[C@@H](C=O)[C@@H]1CC[C@]2(C(=O)O)CC[C@]3(C)[C@H](CC[C@@H]4[C@@]5(C)CCC(O)C(C)(C)[C@@H]5CC[C@]43C)[C@@H]12 (stereo partly specified)	46.9	44.4	52.9	55.2	50.3	–
C=C(C)[C@@H]1CC[C@]2(C(=O)OCc3ccccc3)CC[C@]3(C)[C@H](CC[C@@H]4[C@@]5(C)CC/C(=N\Nc6ccc([N+](=O)[O-])cc6[N+](=O)[O-])C(C)(C)[C@@H]5CC[C@]43C)[C@@H]12	> 100	> 100	> 100	> 100	66.7	–
C=C(C)[C@@H]1CC[C@]2(C(=O)OC)CC[C@]3(C)[C@H](CC[C@@H]4[C@@]5(C)CC[C@H](O)C(C)(C)[C@@H]5CC[C@]43C)[C@@H]12 [METHYL BETULINATE]	17.2	16.9	16.9	17.2	16.3	–
CC(=O)[C@@H]1CC[C@]2(C(=O)O)CC[C@]3(C)[C@H](CC[C@@H]4[C@@]5(C)CC[C@H](O)C(C)(C)[C@@H]5CC[C@]43C)[C@@H]12 [PLATANIC ACID]	75.4	63.2	97.5	93.6	68	–
CC(=O)[C@@H]1CC[C@]2(C(=O)O)CC[C@]3(C)[C@H](CC[C@@H]4[C@@]5(C)CCC(=O)C(C)(C)[C@@H]5CC[C@]43C)[C@@H]12	59.1	47.1	43.5	64.1	16.1	–
